In patent US8143254B2, “Methods for modulating ion channels” (Cornell Research Foundation, Inc., priority 2005, dated 2012):
Positions count from the first letter of the chain named. “And” between values parts separate entries of the source, which are not always exact repeats. Equal values may be shown once.

Legend:
Format in all cases: cell-based
Kv2.1-K356C = molecular target: T1, Kv2.1-K356C (Rattus norvegicus, UniProt P15387, K360C); experiment: Cysteine protection experiments, K356C variant of Kv2.1 in oocytes; details: K356C mutant
T1 construct: expressed in transfected cells; host or cells: Xenopus laevis oocytes (cRNA from pGA1)
T1 sequence (P15387 1-857 K360C): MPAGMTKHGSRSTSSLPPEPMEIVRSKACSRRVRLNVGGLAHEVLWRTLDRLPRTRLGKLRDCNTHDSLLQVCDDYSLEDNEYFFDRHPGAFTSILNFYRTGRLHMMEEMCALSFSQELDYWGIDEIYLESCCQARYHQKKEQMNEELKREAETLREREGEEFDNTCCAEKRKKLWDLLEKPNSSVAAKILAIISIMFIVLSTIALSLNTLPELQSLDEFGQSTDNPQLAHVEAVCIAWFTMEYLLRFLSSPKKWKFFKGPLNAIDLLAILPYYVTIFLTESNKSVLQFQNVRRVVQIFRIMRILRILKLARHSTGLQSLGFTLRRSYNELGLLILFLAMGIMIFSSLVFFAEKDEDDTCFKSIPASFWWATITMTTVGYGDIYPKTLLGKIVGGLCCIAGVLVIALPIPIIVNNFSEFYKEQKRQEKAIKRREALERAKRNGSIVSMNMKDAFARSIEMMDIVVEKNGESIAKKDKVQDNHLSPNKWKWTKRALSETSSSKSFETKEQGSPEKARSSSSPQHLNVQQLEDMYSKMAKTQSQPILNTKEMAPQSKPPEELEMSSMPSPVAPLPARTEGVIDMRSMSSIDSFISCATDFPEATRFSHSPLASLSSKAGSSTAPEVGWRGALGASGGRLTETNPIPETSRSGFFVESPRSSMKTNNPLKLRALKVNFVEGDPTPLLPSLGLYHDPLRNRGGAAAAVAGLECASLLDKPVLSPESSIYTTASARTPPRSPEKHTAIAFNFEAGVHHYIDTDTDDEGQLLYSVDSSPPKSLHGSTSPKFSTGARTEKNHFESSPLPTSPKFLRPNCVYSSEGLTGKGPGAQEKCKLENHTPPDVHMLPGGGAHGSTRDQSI
Source text: (§1) Kv2.1 mutants were constructed using the QuickChange Multi Site-Directed Mutagenesis Kit (Stratagene, La Jolla, Calif.). Mutant Kv2.1 genes (in the pGA1 oocyte expression vector for oocyte expression) were sequenced in their entirety to confirm appropriate mutations and check for inadvertent mutations, and then subcloned into a wild-type pGA1 backbone. For oocyte expression, Kv3.4 was in pBF1, Kv4.2 was in pRAT. cRNA transcripts were produced from SacII-linearized (Kv2.1), Mlullinearized (Kv3.4) and Not1-linearized (Kv4.2) DNA templates using the T3 (Kv2.1), SP6 (Kv3.4) and T7 (Kv4.2) mMessage mMachine kits (Ambion, Austin, Tex.). cRNA was quantified by spectrophotometry and its size integrity verified by gel electophoresis. Defolliculated stage V and VI Xenopus laevis oocytes (purchased from Nasco, Grand Island, N.Y.) were injected with 5 ng of cRNA encoding Kv2.1, Kv3.4 or Kv4.2. Chinese Hamster Ovary (CHO) cells were transfected with 0.25 μg Kv2.1 cDNA, 2 μg blank plasmid and 2 μg Green fluorescent Protein in pBOB using Supetfect transfection reagent (Qiagen) 24 hours before whole-cell voltage clamp studies.
(§2) Whole-cell two-electrode voltage-clamp (TEVC) recordings were performed on X laevis oocytes expressing cloned Kv2.1, Kv3.4 or Kv4.2 using a Warner OC-725C amplifier and pClamp9 (Axon Instruments, Foster City, Calif.) software. Oocytes were bathed in a small-volume Warner oocyte bath and viewed with a Fisher dissection microscope. Bath solution for whole-cell oocyte recordings was (in mM): 96 NaCl, 4 KCl, 0.7 MgCl2, 1 CaCl2, 10 HEPES (pH 7.4); whole-cell oocyte TEVC pipettes were of 0.2-2 M resistance when filled with 3 M KCl. Experiments were performed 24-48 hours after cRNA injection. For assessment of current-voltage relationships in the absence or presence of dabco derivatives, oocytes were held at −80 mV, stepped for 2 seconds at voltages between −80 mV and +60 mV in 20 mV steps (Kv2.1) or between −80 and +50 mV in 10 mV steps (Kv3.4), then held for 500 ms at −40 mV before returning to the holding potential. For assessment of block during wash-in of dabco derivatives at a single voltage, oocytes were held at −80 mV, and repetitively stepped to 0 mV for 2 s with an interpulse interval of 10 s or 60 s as indicated. A range of concentrations of dabco or dabco derivatives were washed in via the bath solution during repetitive single-voltage pulses (after an initial period of 5 pulses with control solution to ensure current stabilization) until equilibrium block was achieved, to establish dose-responses. Inhibited currents are compared to the current at the end of 5-pulse control period, thus some bar graphs show ‘control’ current values slightly less than 1, and with an error bar, to show how much currents deviate in the absence of drug. Washout was performed after the highest concentration of blocker was washed in. In cases where washout was achieved, only those recordings in which current returned to within 10% of original current level were used for construction of dose-response curves. For cysteine protection experiments using the K356C variant of Kv2.1, a dabco derivative (JC638.2a) was washed in to equilibrium block, followed by wash-in of a solution containing both JC638.2a and MTSET until no further changes in current were seen; following this the solution was washed out with standard bath solution. As controls for this protection analysis, JC638.2a or MTSET were washed in alone until equilibrium block, then washed out.

Δ1-28 Kv3.4 channels = molecular target: T2, Δ1-28 Kv3.4 channels (Homo sapiens, UniProt Q03721); experiment: TEVC current-voltage relationship of Δ1-28 Kv3.4 in Xenopus oocytes; details: 1 mM
T2 construct: expressed in transfected cells; host or cells: Xenopus oocytes (cRNA injection)
T2 sequence (Q03721 29-635): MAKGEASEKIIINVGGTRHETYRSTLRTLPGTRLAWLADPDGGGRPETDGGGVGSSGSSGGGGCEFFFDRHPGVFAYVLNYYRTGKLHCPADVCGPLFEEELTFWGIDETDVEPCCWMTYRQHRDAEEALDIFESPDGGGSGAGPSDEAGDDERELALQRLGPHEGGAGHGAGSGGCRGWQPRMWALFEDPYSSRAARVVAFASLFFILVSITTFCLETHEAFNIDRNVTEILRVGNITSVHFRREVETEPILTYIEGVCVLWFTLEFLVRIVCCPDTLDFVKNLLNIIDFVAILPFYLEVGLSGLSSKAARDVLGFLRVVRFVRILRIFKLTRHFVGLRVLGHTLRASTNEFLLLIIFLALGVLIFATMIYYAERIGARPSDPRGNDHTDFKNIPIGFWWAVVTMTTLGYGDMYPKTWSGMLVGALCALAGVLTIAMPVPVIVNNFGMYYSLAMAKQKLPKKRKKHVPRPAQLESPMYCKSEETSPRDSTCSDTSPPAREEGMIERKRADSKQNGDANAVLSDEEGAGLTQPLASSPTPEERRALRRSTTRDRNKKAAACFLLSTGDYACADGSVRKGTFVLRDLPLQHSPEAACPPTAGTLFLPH
Protocol: FIG. 6. Opening and block of Kv3.4 by two didabco compounds show voltage-dependency. Normalized I/V relationship for Δ1-28 Kv3.4 currents in oocytes in the absence (control) or presence as indicated of 1 mM JC279.3a or JC638.2a. Peak currents during 2 s pulses to voltages between −80 and +60 mV (protocol upper left insert) were recorded, before and after drug was washed in during successive 0.1 Hz, 2 s pulses from −80 to 0 mV until equilibrium block or opening was observed. Points are means from n=3-16 oocytes; error bars indicate SEM.
as §2, with “In cases where washout was achieved, only those recordings in which current returned to within 10% of original current level were used for construction of dose-response curves. For cysteine protection experiments using the K356C variant of Kv2.1, a dabco derivative (JC638.2a) was washed in to equilibrium block, followed by wash-in of a solution containing both JC638.2a and MTSET until no further changes in current were seen; following this the solution was washed out with standard bath solution. As controls for this protection analysis, JC638.2a or MTSET were washed in alone until equilibrium block, then washed out.” left out
To investigate the mechanism of Kv channel block or opening by didabco compounds, the current-voltage relationship (I/V curve) of Δ1-28 Kv3.4 channels expressed in Xenopus oocytes was assessed using TEVC recording in the absence and presence of a didabco opener (JC279.3a, the 10 CH2-group didabco from FIG. 3) or a didabco blocker (JC638.2a, the para didabco from FIG. 4).

[1] = molecular target: T3, Kv2.1 channels expressed in CHO cells (Rattus norvegicus, UniProt P15387); experiment: Whole-cell voltage clamp of CHO cells transfected with Kv2.1; details: 20 mM, 0 mV
T3 construct: expressed in transfected cells; host or cells: CHO cells (transient, co-transfected with GFP plasmid)
T3 sequence (P15387 1-857): T1 sequence (P15387 1-857 K360C) with C360K
Source text: as §1
For whole-cell voltage clamp studies of CHO cells, bath solution was (in mM): 135 NaCl, 5 KCl, 1.2 MgCl2, 5 HEPES, 2.5 CaCl2, and 10 D-glucose, pH 7.4. Pipettes were 3-5 MQ resistance when filled with intracellular solution containing (in mM): 10 NaCl, 117 KCl, 2 MgCl2, 11 HEPES, 11 EGTA, and 1 CaCl2, pH 7.2. For experiments with extracellular drug application, cells were held at −80 mV and subjected to 2 sec test pulses […] every 30 s. Whole-cell patch clamp recordings were performed at 22-25° C. using an IX50 inverted microscope equipped with epifluorescence optics for GFP detection (Olympus), a Multiclamp 700 A Amplifier, a Digidata 1300 Analogue/Digital converter and pClamp9 software (Axon Instruments). Leak and liquid junction potentials (<4 mV) were not compensated for when generating current-voltage relationships. For intracellular drug application, the tip of the recording electrode was first filled with drug-free intracellular solution, the electrode was then back-filled with intracellular solution containing TEA (20 mM), TA279 (5 mM) or JC638.2α (0.5 mM). Cells were held at −80 mV and subjected to 2 sec test pulses from −60 mV to +60 mV in 10 mV increments, followed by a 1 sec tail pulse to −30 mV. After an initial recording which we denoted time 0, a second recording was performed after 5 minutes.
Data analysis: Current-voltage relationships were obtained by measuring peak current during depolarizing pulses. Inhibition constants for DABCO blockers were calculated after generating a dose response curve by fitting with a logistic dose-response function y=A2+[A1−A2/1+(x/x0)^p], where A1 is the maximum response plateau, A2 is the minimum response plateau, x is drug concentrator, x0 is the IC50, and p the Hill slope. Data analysis was performed using CLAMPFIT 9 (Axon Instruments, Foster City, Calif.) and tabulated in Excel 5.0. Graphs were generated using Origin 6.1. Data are expressed as mean±SEM, with n specifying the number of independent experiments. Statistical significance was assessed by one-way ANOVA with p<0.05 being indicative of significance.

For C[N+](C)(C)CCSS(C)(=O)=O [MTSET, reference compound], the “current inhibition, administered alone” value (Kv2.1-K356C) was 56±3%.
With C(CCCCC[N+]12CCN(CC1)CC2)CCCC[N+]12CCN(CC1)CC2 [JC279.3a, 1,10-[bis(4-aza-1-azoniabicyclo[2.2.2]octanyl)]decane] the “block or opening of Δ1-28 Kv3.4” value (Δ1-28 Kv3.4 channels) was “opener” and the “voltage dependence of block or opening of Kv3.4” value (Δ1-28 Kv3.4 channels; attenuated at more depolarized voltages) was “voltage-dependent”.
CC[N+](CC)(CC)CC [TEA, tetraethylammonium, reference compound] was tested, and the “block on intracellular application” value ([1]; after 5 minutes) was ~88% and 80% and the “block on intracellular application” value ([1]; time 0) was ~85% and 70%.
